Measured values taken from US20180305332A1, “Bispiperidinyl Derivatives as Liver X Receptor Beta Agonists, Compositions, and Their Use” (Merck Sharp & Dohme Corp., priority 2015, published 2018).

Assays:
[1] = target: T1, GST tagged LXRalpha LBD (ligand binding domain) (Homo sapiens, UniProt Q13133); assay: LanthaScreen TR-FRET Liver X Receptor Coactivator Assay, LXR alpha-LBD; assay type: biochemical; conditions: relative to reference T0901317; for EC50 / LXR alpha IP (nM): Inflection Point (potency), co-activator recruitment; for EC50: read-out: LXR alpha IP; for Emax: read-out: LXR alpha act @ max dose (%)
T1 construct: purchased Invitrogen pv4655
T1 sequence (Q13133 209-447 limits assumed): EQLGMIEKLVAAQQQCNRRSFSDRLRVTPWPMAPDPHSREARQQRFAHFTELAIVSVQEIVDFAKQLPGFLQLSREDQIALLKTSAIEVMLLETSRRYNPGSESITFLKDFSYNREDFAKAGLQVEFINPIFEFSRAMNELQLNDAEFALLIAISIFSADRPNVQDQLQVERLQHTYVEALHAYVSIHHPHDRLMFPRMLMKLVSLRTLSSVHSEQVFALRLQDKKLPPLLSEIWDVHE
Method: (§1) Potency (Inflection Point, IP) and efficacy (Emax) are evaluated via compound-induced co-activator recruitment to glutathione-S-transferase (GST) tagged LXRbeta and LXRalpha LBD (ligand binding domain) proteins in relation to reference dual agonist compound T0901317 (N-(2,2,2-Trifluoroethyl)-N-[4-[2,2,2-trifluoro-1-hydroxy-1-(trifluoromethyl)ethyl] phenyl]benzenesulfonamide) using the LanthaScreen™ TR-FRET Liver X Receptor Coactivator Assays according to manufacturer's instructions (Invitrogen catalog number pv4658.pps and pv4655). While running the LanthaScreen™ TR-FRET Liver X Receptor Coactivator Assay, LXR alpha-LBD or LXR beta-LBD was added to ligand test compounds followed by addition of a mixture of a fluorescein-labelled coactivator peptide and terbium-conjugated anti-GST antibody. After an incubation period at room temperature, TR-FRET (time-resolved fluorescence resonance energy transfer) was measured using a filter-based instrument capable of TR-FRET, e.g. PerkinElmer Envision.

[2] = target: T2, GST tagged LXRbeta LBD (ligand binding domain) (Homo sapiens, UniProt P55055); assay: LanthaScreen TR-FRET Liver X Receptor Coactivator Assay, LXR beta-LBD; assay type: biochemical; conditions: relative to reference T0901317; for EC50: Inflection Point (potency), co-activator recruitment, read-out: LXR beta IP; for Emax: read-out: LXR beta act @ max dose (%)
T2 construct: purchased Invitrogen pv4658.pps
T2 sequence (P55055 222-460 limits assumed): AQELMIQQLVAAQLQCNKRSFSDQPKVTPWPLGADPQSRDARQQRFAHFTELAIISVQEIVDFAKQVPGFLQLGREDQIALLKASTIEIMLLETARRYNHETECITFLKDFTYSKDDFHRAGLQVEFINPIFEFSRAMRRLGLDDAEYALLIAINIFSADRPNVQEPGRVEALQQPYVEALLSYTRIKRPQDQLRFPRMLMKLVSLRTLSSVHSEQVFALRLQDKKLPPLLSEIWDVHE
Method: as §1

[3] = activity at max dose (efficacy)

SMILES	EC50 [1] [nM]	Emax [1, 3] [%]	EC50 [2] [nM]	Emax [2, 3] [%]	LXR alpha IP (nM) [1]	LXR alpha act @ max dose (%) [1, 3] [%]	LXR beta act @ max dose (%) [2, 3] [%]
CC(C)C(O)(C(=O)N1CCC(C2CCN(c3ccc(C(=O)N(C)C)c(Cl)n3)CC2)CC1)C1CC1 (stereo not drawn) [Example B-3, 2-chloro-6-[1′-(2-cyclopropyl-2-hydroxy-3-methylbutanoyl)-4,4′-bipiperidin-1-yl]-N,N-dimethylpyridine-3-carboxamide]	1790	71	325	143			
CC(C)C(O)(C(=O)N1CCC(C2CCN(c3ccc(C(=O)N(C)C)cc3Cl)CC2)CC1)C(F)(F)F [Example D-3, 3-chloro-4-{1′-[2-hydroxy-3-methyl-2-(trifluoromethyl)butanoyl]-4,4′-bipiperidin-1-yl}-N,N-dimethylbenzamide]	1570	67	273	118			
O=C(c1ccc(N2CCC(C3CCN(C(=O)[C@](O)(c4ccccc4)C(F)(F)F)CC3)CC2)cc1Cl)N1CC(N2CCCCC2)C1 [Example E-44, (2R)-3-(1′-{3-chloro-4-[(3-piperidin-1-ylazetidin-1-yl)carbonyl]phenyl}-4,4′-bipiperidin-1-yl)-1,1,1-trifluoro-3-oxo-2-phenylpropan-2-ol]	1690	31	90	67			
O=C(c1ccc(N2CCC(C3CCN(C(=O)[C@](O)(c4ccccc4)C(F)(F)F)CC3)CC2)cc1Cl)N1CCCC1C(F)(F)F (stereo partly drawn) [Example E-21, (2R)-3-[1′-(3-chloro-4-{[2-(trifluoromethyl)pyrrolidin-1-yl]carbonyl}phenyl)-4,4′-bipiperidin-1-yl]-1,1,1-trifluoro-3-oxo-2-phenylpropan-2-ol]		13	95	62	NO IP		
CN(C)C(=O)c1ccc(N2CCC(C3CCN(C(=O)C4(C(F)(F)F)CCCCC4)CC3)CC2)cc1Cl [Example A-27, 2-chloro-N,N-dimethyl-4-(1′-{[1-(trifluoromethyl)cyclohexyl]carbonyl}-4,4′-bipiperidin-1-yl)benzamide]	300	70	26	119			
CN(C)C(=O)c1ccc(N2CCC(C3CCN(C(=O)C(F)(F)c4ccccc4Cl)CC3)CC2)cc1Cl [Example A-62, 2-chloro-4-{1′-[(2-chlorophenyl)(difluoro)acetyl]-4,4′-bipiperidin-1-yl}-N,N-dimethylbenzamide]	782	74	22	131			
CN(C)C(=O)c1ccc(N2CCC(C3CCN(C(=O)c4ccccc4Cl)CC3)CC2)cc1Cl [Example A-22, 2-chloro-4-{1′-[(2-chlorophenyl)carbonyl]-4,4′-bipiperidin-1-yl}-N,N-dimethylbenzamide]	1	3	52	58			
O=C(NC1CN(C(=O)c2ccc(N3CCC(C4CCN(C(=O)[C@](O)(c5ccccc5)C(F)(F)F)CC4)CC3)cc2Cl)C1)c1ccccc1 [Example E-41, N-{1-[(2-chloro-4-{1′-[(2R)-3,3,3-trifluoro-2-hydroxy-2-phenylpropanoyl]-4,4′-bipiperidin-1-yl}phenyl)carbonyl]azetidin-3-yl}benzamide]	1680	54	118	74			
CN(C)C(=O)c1ccc(N2CCC(C3CCN(C(=O)[C@](O)(c4ccccc4)C(F)(F)F)CC3)CC2)cc1Cl [Example A-13, 2-chloro-N,N-dimethyl-4-{1′-[(2R)-3,3,3-trifluoro-2-hydroxy-2-phenylpropanoyl]-4,4′-bipiperidin-1-yl}benzamide]	1510	19	52	106			
CN(C)S(=O)(=O)c1ccc(N2CCC(C3CCN(C(=O)[C@](O)(c4ccccc4)C(F)(F)F)CC3)CC2)cc1Cl [Example D-4, 2-chloro-N,N-dimethyl-4-{1′-[(2R)-3,3,3-trifluoro-2-hydroxy-2-phenylpropanoyl]-4,4′-bipiperidin-1-yl}benzenesulfonamide]	2050	29	371	89			
CN(C)C(=O)c1ccc(N2CCC(C3CCN(C(=O)C(O)(c4cccc(F)c4)C(F)(F)F)CC3)CC2)cc1Cl (stereo not drawn) [Example A-95, 2-chloro-N,N-dimethyl-4-{1′-[3,3,3-trifluoro-2-(3-fluorophenyl)-2-hydroxypropanoyl]-4,4′-bipiperidin-1-yl}benzamide]	1330	38	84	116			
CN(C)C(=O)c1ccc(N2CCC(C3CCN(c4ccccc4Cl)CC3)CC2)cc1Cl [Example A-107, 2-chloro-4-[1′-(2-chlorophenyl)-4,4′-bipiperidin-1-yl]-N,N-dimethylbenzamide]		17	825	62	NO IP		
CN(C)C(=O)c1ccc(N2CCC(C3CCN(C(=O)C(F)(F)c4cccc(F)c4)CC3)CC2)cc1Cl [Example A-69, 2-chloro-4-{1′-[difluoro(3-fluorophenyl)acetyl]-4,4′-bipiperidin-1-yl}-N,N-dimethylbenzamide]	1770	51	86	113			
O=C(c1c(F)cccc1F)N1CCC(C2CCN(c3ccc(C(=O)N4CCCC4C(F)(F)F)c(Cl)c3)CC2)CC1 (stereo not drawn) [Example E-13, 1-(3-chloro-4-{[2-(trifluoromethyl)pyrrolidin-1-yl]carbonyl}phenyl)-1′-[(2,6-difluorophenyl)carbonyl]-4,4′-bipiperidine]	2150	15	473	46			
CN(C)C(=O)c1ccc(N2CCC(C3CCN(C(=O)C4(c5cccc(F)c5)CCC4)CC3)CC2)cc1Cl [Example A-17, 2-chloro-4-(1′-{[1-(3-fluorophenyl)cyclobutyl]carbonyl}-4,4′-bipiperidin-1-yl)-N,N-dimethylbenzamide]	2260	14	204	100			
C=C(C)CC(O)(C(=O)N1CCC(C2CCN(c3ccc(C(=O)N(C)C)c(Cl)c3)CC2)CC1)C(F)(F)F (stereo not drawn) [Example A-56, 2-chloro-4-{1′-[2-hydroxy-4-methyl-2-(trifluoromethyl)pent-4-enoyl]-4,4′-bipiperidin-1-yl}-N,N-dimethylbenzamide]	1910	68	64	120			
CN(Cc1ccon1)C(=O)c1ccc(N2CCC(C3CCN(C(=O)[C@](O)(c4ccccc4)C(F)(F)F)CC3)CC2)cc1Cl [Example E-52, 2-chloro-N-(isoxazol-3-ylmethyl)-N-methyl-4-{1′-[(2R)-3,3,3-trifluoro-2-hydroxy-2-phenylpropanoyl]-4,4′-bipiperidin-1-yl}benzamide]	1420	28	206	78			
CN(C)C(=O)c1ccc(N2CCC(C3CCN(C(=O)C4(c5ccccc5)CCCC4)CC3)CC2)cc1Cl [Example A-40, 2-chloro-N,N-dimethyl-4-{1′-[(1-phenylcyclopentyl)carbonyl]-4,4′-bipiperidin-1-yl}benzamide]	940	41	37	113			
CCN(CC)C(=O)c1ccc(N2CCC(C3CCN(C(=O)c4c(F)cccc4F)CC3)CC2)cc1Cl [Example E-14, 2-chloro-4-{1′-[(2,6-difluorophenyl)carbonyl]-4,4′-bipiperidin-1-yl}-N,N-diethylbenzamide]	1890	30	289	78			
CS(=O)(=O)c1ccc(N2CCC(C3CCN(C(=O)c4c(F)cccc4F)CC3)CC2)cc1Cl [Example D-6, 1-[3-chloro-4-(methylsulfonyl)phenyl]-1′-[(2,6-difluorophenyl)carbonyl]-4,4′-bipiperidine]	772	18	380	49			
CN(C)C(=O)c1ccc(N2CCC(C3CCN(C(=O)C(O)(C4CC4)C(F)(F)F)CC3)CC2)cc1Cl (single isomer, unassigned) [Example A-9, 2-chloro-4-[1′-(2-cyclopropyl-3,3,3-trifluoro-2-hydroxypropanoyl)-4,4′-bipiperidin-1-yl]-N,N-dimethylbenzamide]	1200		116			56	110
